Assay results published in patent US20040077677A1, “Oral formulations” (Wyeth, priority 2002, published 2004).

Key:
[1] = Aqueous solubility of CCI-779; format: physicochemical; conditions: water (aqueous)
Description: (§1) One obstacle towards the formulation of CCI-779 is its poor aqueous solubility (less than 1 μg/ml), which makes its bioavailability low.

[2] = Aqueous stability of CCI-779; format: physicochemical; conditions: cleavage of a lactone bond, forming ring opened seco-CCI-779
Description: as §1

[3] = tested on: tumor cells; conditions: histologically diverse tumor cells; cited from earlier work
[4] = tested on: human tumor xenografts; conditions: nude mice, diverse histological types; cited from earlier work

Compound: CO[C@H]1C[C@@H]2CC[C@@H](C)[C@@](O)(O2)C(=O)C(=O)N2CCCC[C@H]2C(=O)O[C@H]([C@H](C)C[C@@H]2CC[C@@H](OC(=O)C(C)(CO)CO)[C@H](OC)C2)CC(=O)[C@H](C)/C=C(\C)[C@@H](O)[C@@H](OC)C(=O)[C@H](C)C[C@H](C)/C=C/C=C/C=C/1C [CCI-779, rapamycin 42-ester with 3-hydroxy-2-(hydroxymethyl)-2-methylpropionic acid]
- solubility [1]: < 1 µg/mL
- aqueous stability [2]: exhibits aqueous instability
- inhibition of tumor cell growth in vitro [3]: inhibit the growth of a number of histologically diverse tumor cells
- activity against human tumor xenografts [4]: has activity against human tumor xenografts of diverse histological types
